A short description of one data set: Kinetic solubility. Type of data set: physicochemical. The note with it: phosphate buffer, pH 7.4, aqueous buffer, kinetic from dmso stock, phosphate buffer 20 mM pH 7.4, 2% DMSO, room temperature. Here is the method:
Kinetic solubility of compounds of the present invention were tested according the following procedure.
(a) Buffer Solution Phosphate Buffer 20 mM pH 7.4 is prepared using Sorensen Phosphate Buffer 0.2 M pH 7.4 (EMS) in a 1000 mL volumetric flask (b) 2% DMSO in Phosphate Buffer 20 mM pH 7.4 is prepared by using 1 mL Dimethylsulfoxide (Merck) and 49 ml Sorensen Phosphate Buffer 20 mM pH 7.4 (c) Acetonitrile/Methanole/Eluent A (1:1:2; v/v/v) is prepared by using 50 mL Acetonitrile (Merck), 50 mL Methanol (Merck) and 100 mL Eluent A (d) Eluent A is prepared by using 1 mL Formic Acid (Merck) and 999 mL Ultrapure water (e) Eluent B is prepared by using 1 mL Formic Acid (Merck) and 999 mL Acetonitrile (Merck) (f) Filtration plate: Millipore MultiScreen HTS HV (0.45 μm) 96 Well (Millipore)
98 μL buffer solution (a) is added into a well of a 96 well filtration plate (f). Then 2 μL of 10 mM test compound solution in DMSO (Remp tube) is added. The filtration plate is incubated at room temperature for 120 minutes while agitating at 250 rpm and centrifuged with the PP-Plate (g) as receiver plate below (2500 rpm, 3 min). The 50 μL of filtrate is taken from the receiver plate and mixed with 50 μL of 2% DMSO in buffer pH 7.4 solution (b) (dilution factor=2) in a HPLC Vial (i)+(j).
Standard is prepared by diluting 2 μL of the same 10 mM test compound solution (Remp tube) diluted with 198 μL Acetonitrile/Methanole/Eluent A (1:1:2; v/v/v) (c) to prepare a 100 μM standard solution in a HPLC Vial (i)+(j).
Column temperature: 37° C. Autosampler: room temperature (approx. 25° C.) Gradient programme: […]
Injection volume: 10 μL Wavelength: Suitable wavelength (maximum sensitivity) selected out of wavelength range of 190-400 nm using a DAD detector.
L [μg/mL]=(area sample*concentration standard*dilution factor sample)/(area standard*dilution factor standard)
S [mol/L]=[…] Calculation: […]

The nature of data set [1]: Solubility PBS (thermodynamic solubility, shake flask method). The format is physicochemical. The following applies: phosphate buffer (PBS), aqueous buffer, thermodynamic from solid, PBS pH 7.4, 24 hours at 37° C. As for the experimental part: The method involves dissolving the test compound in a solvent at a constant temperature followed by HPLC determination of the concentration of the solute in the solution, which must not contain any undissolved particles.
Phosphate Buffer pH 7.4 is prepared by using 50 mL monobasic potassium phosphate solution 0.2 M in a 200-mL volumetric flask and adding 39.1 mL of sodium hydroxide solution 0.2 M and then adding water to volume.
Standard solution is prepared by weighing in a standard compound (about 1 mg) into a flask and dissolved completely in a solution of acetonitrile/methanol (1:1; V/V).
The sample of the test compound (about 2-3 mg) is weighed into a Uniprep® syringeless filter (5 mL; 0.45 μm), the 2 mL of solvent is added and the mixture is agitated for 24 hours at 37° C. The suspension is filtered after 24 hours and the concentration of dissolved substance is determined by HPLC. The result is stated as >x μg/mL, calculated from the sample weight taken and the volume of solvent used
Eluent A: Ultrapure water/Formic acid GR for analysis (999:1, V/V) Eluent B: Acetonitrile/Formic acid GR for analysis (999:1, V/V)
The result is determined quantitatively based on the external standard method through integration of the peak areas with reference to the figures obtained for the standard substance.
L[μg/mL]=a(A)*c(S)*F(A)/a(S)*F(S) Calculation: • a (A)=peak area for analyte/mL • a (S)=peak area for standard/mL • c (S)=concentration of standard (μg/mL) • F (A)=dilution factor for analyte • F (S)=dilution factor for standard

The structures appear in SMILES notation. ≈ marks a conversion by molar mass, not a printed value.

On to `COc1ccc([C@@H](Nc2cc(-c3ccc4ccn(C)c4c3)c3nccnc3c2)c2cccnc2)cn1` [Comparative Example 4, [(S)-(6-methoxy-pyridin-3-yl)-pyridin-3-yl-methyl]-[8-(1-methyl-1H-indol-6-yl)-quinoxalin-6-yl]-amine, reference compound], for which the solubility (kinetic) (as a rule, solubility judged after dilution from a stock solution rather than from solid) at 120 min in the data set “Kinetic solubility” is 3.7 µM (≈ 1.75 µg/mL). For the same molecule, the solubility – broadly, how much of the substance goes into solution per volume – at 24 h in data set [1] was 1 µg/mL (≈ 2.12 µM).
Molecule `COc1ccc([C@@H](Nc2cc(-c3ccc4ccn(C)c4c3)c3nccnc3c2)c2cccnc2)nn1` (single isomer, unassigned) [Example 5] had a kinetic solubility at 120 min in the data set “Kinetic solubility” of 20 µM (≈ 9.47 µg/mL). This molecule showed a solubility at 24 h in data set [1] of 4 µg/mL (≈ 8.45 µM).
`Cn1cc([C@H](Nc2cc(-c3ccc4ccn(C)c4c3)c3nccnc3c2)c2cncn2C)cn1` (single isomer, unassigned) [Example 11] gave a solubility (kinetic) at 120 min in the data set “Kinetic solubility” of 100 µM (≈ 44.9 µg/mL). For the same molecule, the concentration in solution in data set [1] (solubility at 24 h) was 4 µg/mL (≈ 8.92 µM).
`Cn1cc([C@H](Nc2cc(-c3ccc4ccn(C)c4c3)c3nccnc3c2)c2cnnn2C)cn1` (single isomer, unassigned) [Example 8] gave a solubility (kinetic) at 120 min in the data set “Kinetic solubility” of 110 µM (≈ 49.4 µg/mL). The same molecule came in with a solubility at 24 h in data set [1] of 80 µg/mL (≈ 178 µM).
Taken in the same sequence, the figures for `Cn1ccc2ccc(-c3cc(NC(c4cccnc4)c4ccc(=O)[nH]n4)cc4nccnc34)cc21` (single isomer, unassigned) [Example 2] were 61 µM (≈ 28 µg/mL) and 10 µg/mL (≈ 21.8 µM).

Values taken from patent US20190256499A1, “SUBSTITUTED QUINOXALINE DERIVATIVES AS INHIBITORS OF PFKFB” (priority 2016, published 2019).
